The results in this text go back to patent US6316623A, “Ethylenediamine compound libraries” (priority 1998, dated 2001).

The test deals with E. coli imp-. The experiment in a line: microbe, parasite or virus in culture. Type of test: cell-based. The settings on record: Escherichia coli, 24 h, read-out: % inhibition of bacterial growth in culture. As for the experimental part: In this assay, the strain E. coli imp-obtained from Spenser Bensen (Sampson, B. A., Misra, R. & Benson, S. A. (1989), Genetics, 122, 491-501, Identification and characterization of a new gene of Escherichia coli K-12 involved in outer membrane permeability) is used. To initiate the exponential phase of bacterial growth prior to the assay, a sample of bacteria was grown overnight at 37° C. in Luria broth and then used to reinoculate sample wells of 96-well microtiter plates. The assays were carried out in the 96-well microtiter plates in 150 μL volume with approximately 1×10^6 cells per well.
Bacteria in Luria broth (75 μL) was added to the compound mixtures in solution in 75 μL water in the individual well of the microtiter plate. Final concentrations of the compound mixtures were 25 μM, 10 μM and 1 μM. Each concentration of the compound mixtures were assayed in triplicate. The plates were incubated at 37° C. and growth monitored over a 24 hour period by measuring the optical density at 595 nm using a BioRad model 3550 UV microplate reader. The percentage of growth relative to a well containing no compound was determined. Ampicillin and tetracycline antibiotic positive controls were concurrently tested in each screening assay.
On to `CC(C)(C)c1ccc(C(=O)N(CCNC(=O)c2cnccn2)CC2CCCN(C(=O)Cc3ccccc3)C2)cc1` (racemic) [compound 17957], for which the inhibition (commonly the percentage by which the read-out fell short of the control) at 500 µM was determined as 95.7%. With `CC(C)(C)c1ccc(C(=O)N(CCNC(N)=O)CC2CCCN(C(=O)CO)C2)cc1` (racemic) [compound 17959] the figure was 39.5%; with `Cc1ccc(NC(=O)NCCN(C(=O)C2CC2)C2CCN(C(=O)Cc3ccccc3)C2)cc1` (racemic) [compound 17986], 35.2%. `CC(C)(C)c1ccc(C(=O)N(CCNC(=O)c2cnccn2)C2CCN(C(=O)Cc3ccccc3)C2)cc1` (racemic) [compound 17989]: the inhibition at 500 µM is 38.5%. In the case of `O=C(NCCN(C(=O)CO)C1CCN(C(=O)Cc2ccccc2)C1)c1cnccn1` (racemic) [compound 18005], the inhibition at 500 µM is 61.1%. Next, `CC(C)(C)c1ccc(C(=O)N(CCNC(=O)c2cnccn2)CC2CCN(C(=O)Cc3ccccc3)CC2)cc1` [compound 17925]: 93.9%; `CC(C)(C)c1ccc(C(=O)N(CCNC(N)=O)CC2CCN(C(=O)CO)CC2)cc1` [compound 17927]: 96.3%. Next, `Cc1ccc(NC(=O)NCCN(CC2CCN(C(=O)CO)CC2)C(=O)c2ccc(N)cc2)cc1` [compound 17946]: 98.7%.
